Each compound was assayed against Escherichia coli DNA gyrase A/B tetramer (Escherichia coli (strain K12), UniProt P0AES4+P0AES6) (assay: DNA gyrase supercoiling activity fluorescence polarisation assay). Conditions: not given.
Format: biochemical
Method in brief: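 Supercoiling reactions quenched with 40 nM 5′-BODIPY-FL triplex-forming oligonucleotide probe in pH 3.5 NaCl/sodium acetate buffer; after 60 min, fluorescence anisotropy read (ex 485/em 535 nm). IC50 by nonlinear regression, normalised to 0.8% DMSO (100% activity) and 5 μM ciprofloxacin (0% activity).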

Row | SMILES | IC50 [nM]
1 | C[C@@H]1CN2c3c(cc4c(C(=O)N5CC(C#N)C5)noc4c3F)CC3(C(=O)NC(=O)NC3=O)[C@H]2[C@H](C)O1 (relative stereo) [Example 164, 1-((2R,4 S,4 aS)-rel-11-fluoro-2,4-dimethyl-2′,4′,6′-trioxo-2,2′,3′,4,4a,4′,6,6′-octahydro-1H,1′H-spiro[isoxazolo[4,5-g][1,4]oxazino[4,3-a]quinoline-5,5′-pyrimidine]-8-ylcarbonyl)azetidine-3-carbonitrile] | 1200
2 | C[C@@H]1CN2c3c(cc4c(CO)noc4c3F)CC3(C(=O)NC(=O)NC3=O)[C@H]2[C@H](C)O1 (relative stereo) [Example 185, (2R,4S,4aS)-rel-11-fluoro-8-(hydroxymethyl)-2,4-dimethyl-2,4,4a,6-tetrahydro-1H,1′H-spiro[isoxazolo[4,5-g][1,4]oxazino[4,3-a]quinoline-5,5′-pyrimidine]-2′,4′,6′(3′H)-trione] | 1400

Same assay, conditions: 5 nM enzyme, relaxed plasmid, 0.3 mM ATP, ambient temperature; read-out: E. coli DNA gyrase supercoiling IC50

Row | SMILES | IC50 [nM]
3 | C[C@@H]1CN2c3c(cc4c(C(=O)NCc5ccncc5)noc4c3F)CC3(C(=O)NC(=O)NC3=O)[C@H]2[C@H](C)O1 (relative stereo) [Example 155, (2R,4S,4aS)-rel-11-fluoro-2,4-dimethyl-2′,4′,6′-trioxo-N-(pyridin-4-ylmethyl)-2,2′,3′,4,4a,4′,6,6′-octahydro-1H,1′H-spiro[isoxazolo[4,5-g][1,4]oxazino[4,3-a]quinoline-5,5′-pyrimidine]-8-carboxamide] | 1200
4 | C[C@@H]1CN2c3c(cc4c(C(=O)NCC5CCCCC5)noc4c3F)CC3(C(=O)NC(=O)NC3=O)[C@H]2[C@H](C)O1 (relative stereo) [Example 156, (2R,4S,4aS)-rel-N-(cyclohexylmethyl)-11-fluoro-2,4-dimethyl-2′,4′,6′-trioxo-2,2′,3′,4,4a,4′,6,6′-octahydro-1H,1′H-spiro[isoxazolo[4,5-g][1,4]oxazino[4,3-a]quinoline-5,5′-pyrimidine]-8-carboxamide] | 1500
5 | C[C@@H]1CN2c3c(cc4c(C(=O)N5CCC(F)(F)CC5)noc4c3F)CC3(C(=O)NC(=O)NC3=O)[C@H]2[C@H](C)O1 (relative stereo) [Example 157, (2R,4S,4aS)-rel-8-(4,4-difluoropiperidine-1-carbonyl)-11-fluoro-2,4-dimethyl-2,4,4a,6-tetrahydro-1H,1′H-spiro[isoxazolo[4,5-g][1,4]oxazino[4,3-a]quinoline-5,5′-pyrimidine]-2′,4′,6′(3′H)-trione] | 6400
6 | C[C@@H]1CN2c3c(cc4c(C(=O)NC5CN(C)C5)noc4c3F)CC3(C(=O)NC(=O)NC3=O)[C@H]2[C@H](C)O1 (relative stereo) [Example 159, (2R,4S,4aS)-rel-11-fluoro-2,4-dimethyl-N-(1-methylazetidin-3-yl)-2′,4′,6′-trioxo-2,2′,3′,4,4a,4′,6,6′-octahydro-1H,1′H-spiro[isoxazolo[4,5-g][1,4]oxazino[4,3-a]quinoline-5,5′-pyrimidine]-8-carboxamide] | 1400
7 | CC(=O)NC1CN(C(=O)c2noc3c(F)c4c(cc23)CC2(C(=O)NC(=O)NC2=O)[C@H]2[C@H](C)O[C@H](C)CN42)C1 (relative stereo) [Example 160, N-(1-((2R,4S,4aS)-rel-11-fluoro-2,4-dimethyl-2′,4′,6′-trioxo-2,2′,3′,4,4a,4′,6,6′-octahydro-1H,1′H-spiro[isoxazolo[4,5-g][1,4]oxazino[4,3-a]quinoline-5,5′-pyrimidine]-8-ylcarbonyl)azetidin-3-yl)acetamide] | 1000
8 | C[C@@H]1CN2c3c(cc4c(C(=O)NCc5ccn(C)n5)noc4c3F)CC3(C(=O)NC(=O)NC3=O)[C@H]2[C@H](C)O1 (relative stereo) [Example 161, (2R,4S,4aS)-rel-11-fluoro-2,4-dimethyl-N-((1-methyl-1H-pyrazol-3-yl)methyl)-2′,4′,6′-trioxo-2,2′,3′,4,4a,4′,6,6′-octahydro-1H,1′H-spiro[isoxazolo[4,5-g][1,4]oxazino[4,3-a]quinoline-5,5′-pyrimidine]-8-carboxamide] | 1300
9 | COCC(COC)(COC)NC(=O)c1noc2c(F)c3c(cc12)CC1(C(=O)NC(=O)NC1=O)[C@H]1[C@H](C)O[C@H](C)CN31 (relative stereo) [Example 163, (2R,4S,4aS)-rel-N-(1,3-dimethoxy-2-(methoxymethyl)propan-2-yl)-11-fluoro-2,4-dimethyl-2′,4′,6′-trioxo-2,2′,3′,4,4a,4′,6,6′-octahydro-1H,1′H-spiro[isoxazolo[4,5-g][1,4]oxazino[4,3-a]quinoline-5,5′-pyrimidine]-8-carboxamide] | 17000
10 | C[C@@H]1CN2c3c(cc4c(-c5cnccn5)noc4c3F)CC3(C(=O)NC(=O)NC3=O)[C@H]2[C@H](C)O1 (relative stereo) [Example 165, (2R,4S,4aS)-rel-11-fluoro-2,4-dimethyl-8-(pyrazin-2-yl)-1,2,4,4a-tetrahydro-2′H,6H-spiro[1,4-oxazino[4,3-a][1,2]oxazolo[4,5-g]quinoline-5,5′-pyrimidine]-2′,4′,6′(1′H,3′H)-trione] | 400
11 | C[C@@H]1CN2c3c(cc4c(-c5cncc(N(C)C)n5)noc4c3F)CC3(C(=O)NC(=O)NC3=O)[C@H]2[C@H](C)O1 (relative stereo) [Example 177, (2R,4S,4aS)-rel-8-(6-(dimethylamino)pyrazin-2-yl)-11-fluoro-2,4-dimethyl-2,4,4a,6-tetrahydro-1H,1′H-spiro[isoxazolo[4,5-g][1,4]oxazino[4,3-a]quinoline-5,5′-pyrimidine]-2′,4′,6′(3′H)-trione] | 5000
12 | C[C@@H]1CN2c3c(cc4c(N5CCNCC5)noc4c3F)CC3(C(=O)NC(=O)NC3=O)[C@H]2[C@H](C)O1 (relative stereo) [Example 179, (2R,4S,4aS)-rel-11-fluoro-2,4-dimethyl-8-(piperazin-1-yl)-1,2,4,4a-tetrahydro-2′H,6H-spiro[isoxazolo[4,5-g][1,4]oxazino[4,3-a]quinoline-5,5′-pyrimidine]-2′,4′,6′(1′H,3′H)-trione] | 2000
13 | C[C@@H]1CN2c3c(cc4c([S+](C)[O-])noc4c3F)CC3(C(=O)NC(=O)NC3=O)[C@H]2[C@H](C)O1 (relative stereo) [Example 181, (2R,4S,4aS)-rel-11-fluoro-2,4-dimethyl-8-(methylsulfinyl)-1,2,4,4a-tetrahydro-2′H,6H-spiro[1,4-oxazino[4,3-a][1,2]oxazolo[4,5-g]quinoline-5,5′-pyrimidine]-2′,4′,6′(1′H,3′H)-trione] | 3300
14 | C[C@@H]1CN2c3c(cc4c(S(C)(=O)=O)noc4c3F)CC3(C(=O)NC(=O)NC3=O)[C@H]2[C@H](C)O1 (relative stereo) [Example 182, (2R,4S,4aS)-rel-11-fluoro-2,4-dimethyl-8-(methylsulfonyl)-1,2,4,4a-tetrahydro-2′H,6H-spiro[1,4-oxazino[4,3-a][1,2]oxazolo[4,5-g]quinoline-5,5′-pyrimidine]-2′,4′,6′(1′H,3′H)-trione] | 2400
15 | C[C@@H]1CN2c3c(cc4c(C#N)noc4c3F)CC3(C(=O)NC(=O)NC3=O)[C@H]2[C@H](C)O1 (relative stereo) [Example 183, (2R,4S,4aS)-rel-11-fluoro-2,4-dimethyl-2′,4′,6′-trioxo-1,1′,2,3′,4,4′,4a,6′-octahydro-2′H,6H-spiro[1,4-oxazino[4,3-a][1,2]oxazolo[4,5-g]quinoline-5,5′-pyrimidine]-8-carbonitrile] | 12000
